Data on one cell line can be found in the supplement of paper PMC10307832.

Common to all, as to test: relative viability (nuclei count vs DMSO), 5 days (fraction); higher = more cells survive
Compound in assay [1]: Cc1ccc(NC(=O)c2ccc(CN3CCN(C)CC3)cc2)cc1Nc1nccc(-c2cccnc2)n1 [Imatinib] + C[C@]1(O)C[C@@H](c2nc(-c3ccc4ccc(-c5ccccc5)nc4c3)c3c(N)nccn32)C1 [Linsitinib] (partner 1 µM)
An outline of the steps:
(§1)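 A single step with final 0.05% Triton X-100, 1% formaldehyde and 1 ug/ml Hoechst fixed the cells and stained nuclei 5 days after treatment. Lung cancer cell lines in 1536-well plates had been treated by pin tool the day after seeding with one drug alone or a fixed anchor-drug dose plus five library-drug doses (not always all listed) in √10 steps, and nuclei were counted on 4× images. Relative viability is the ratio of nuclei in treated wells to nuclei in vehicle wells, taken as the median of duplicate plates.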

Compound in assay [2]: Cc1ccc(NC(=O)c2ccc(CN3CCN(C)CC3)cc2)cc1Nc1nccc(-c2cccnc2)n1 [Imatinib] + Cc1cc(Nc2cc(N3CCN(C)CC3)nc(Sc3ccc(NC(=O)C4CC4)cc3)n2)n[nH]1 [Tozasertib] (partner 0.1 µM)
An outline of the steps:
as §1

Compound in assay [3]: Cc1ccc(NC(=O)c2ccc(CN3CCN(C)CC3)cc2)cc1Nc1nccc(-c2cccnc2)n1 [Imatinib] + CC1(C)CCC(c2ccc(Cl)cc2)=C(CN2CCN(c3ccc(C(=O)NS(=O)(=O)c4ccc(N[C@H](CCN5CCOCC5)CSc5ccccc5)c(S(=O)(=O)C(F)(F)F)c4)cc3)CC2)C1 [Navitoclax] (partner 0.5 µM)
An outline of the steps: as §1

Compound in assay [4]: Cc1ccc(NC(=O)c2ccc(CN3CCN(C)CC3)cc2)cc1Nc1nccc(-c2cccnc2)n1 [Imatinib] + CC(=O)c1c(C)c2cnc(Nc3ccc(N4CCNCC4)cn3)nc2n(C2CCCC2)c1=O [Palbociclib] (partner 0.5 µM)
An outline of the steps:
as §1

Consider UMC-11, for which the relative viability turned out to be 1.14 in assay [1] (first compound 0.02 µM); 1.57 in assay [1] (first compound 0.06325 µM); 1.05 in assay [1] (first compound 0.2 µM); 1.08 in assay [1] (first compound 0.6325 µM); 1.06 in assay [1] (first compound 2 µM); 0.192 in assay [2] (first compound 0.02 µM). Moreover, the relative viability in assay [2] (first compound 0.06325 µM) is 0.205; in assay [2] (first compound 0.2 µM), 0.216; in assay [2] (first compound 0.6325 µM) it was 0.211; in assay [2] (first compound 2 µM), 0.208; in assay [3] (first compound 0.02 µM), 0.303; in assay [3] (first compound 0.06325 µM) it was 0.35. The relative viability in assay [3] (first compound 0.2 µM) stood at 0.291; in assay [3] (first compound 0.6325 µM), 0.334; in assay [3] (first compound 2 µM) it was 0.329; in assay [4] (first compound 0.02 µM), 0.333; in assay [4] (first compound 0.06325 µM) it was 0.337; in assay [4] (first compound 0.2 µM), 0.333. In addition, the relative viability in assay [4] (first compound 0.6325 µM) turned out to be 0.33; in assay [4] (first compound 2 µM) it was 0.269.
